Laboratory results: patent US20160375042A1, “USE OF CAMPTOTHECIN DERIVATIVE IN PREPARING PHARMACEUTICAL USED FOR TREATING MULTIPLE MYELOMA” (priority 2014, published 2016)

What was measured:
[1] = Water-solubility test of compounds of Formula II and Formula IV; format: physicochemical; settings: the C-20 phosphite salt (Formula II) itself, read-out: Water-solubility of Comp of Formula II
[2] = test system: S1 and S1-M1-80 (characteristic expression of ABCG2/BCRP); assay: Anti-drug resistance test (MTT, resistance index); format: cell-based; settings: S1-M1-80 (ABCG2/BCRP) versus S1 cells, 72 h, from IC50
Method: Logarithmic growth phase S1 and S1-M1-80 (characteristic expression of ABCG2/BCRP) were prepared as cell suspension of 2.5×10^4 cells/ml and 6×10^4 cells/ml, and were seeded in into 96-well plates with 0.19 ml/well. After incubating in cell incubator for 24 hours at 37° C., 5% CO2, sample solutions in various concentrations were added at 0.01 ml/well. Stroke-physiological saline solution is used as control well. Each treatment is conducted in 3 parallel wells. The drugs were added and incubated additional 72 h hours. And 5 mg/ml of MTT is added at 0.02 ml/well before four hours of the end the incubation. The culture liquid is removed at the end of incubation. Each well was added 0.1 ml of DMSO and OD values were measured at wavelength of 540 nm and reference wavelength of 655 nm. The experiment was repeated three times. Equation 1 is used to calculate cell growth inhibition rate (IR); and Equation 2 is used to calculate resistance index. Bliss method is used to calculate the 50% inhibitory concentration (IC50).

[3] = test system: human multiple myeloma cells NCI-H929 xenografts; assay: Tumor inhibitory effect on multiple myeloma cells NCI-H929 xenografts in nude mice; format: in vivo, BALB/c nude mouse
Method: Multiple myeloma cells were routinely passaged in vitro, inoculated in 40 6-7-week-old BALB/c nude mouse, each mouse was subcutaneously injected human multiple myeloma cells NCI-H929 at its right axillary. Weighed after two days. The mice were randomly divided into five groups, eight in each group. Each group was dosed as follows: • i. physiological saline control group • ii. Topotecan positive control group, 2 mg/kg, once every 4 days, intraperitoneal injection • iii. WQ1001, high-dose group, 35 mg/kg, once every 4 days, intraperitoneal injection • iv. WQ1001, middle dose group, 25 mg/kg, once every 4 days, intraperitoneal injectionv. v. WQ1001, low dose group, 18 mg/kg, once every 4 days, intraperitoneal injection
Body weight(BW) as well as long diameter and short diameter of tumors were measured every two days. Tumor volume was calculated according to the Equation 1. On the 11th day after inoculation, the mice were weighed, long diameter and short diameter of tumors were measured, and relative tumor volume (RTV) was calculated according to Equation 2. Mice were sacrificed by cervical dislocation and the tumor mass was stripped and weighed. Inhibition rate (IR) was calculated according to the Equation 3. RTV and tumor weight (TW) for each group were analyzed through T-test.

[4] = Topotecan 2 mg/kg, once every 4 days, intraperitoneal, 11th day
[5] = Topotecan 2 mg/kg, once every 4 days, intraperitoneal, end (11th day after inoculation)
[6] = Topotecan 2 mg/kg, once every 4 days, intraperitoneal, initial

Compound	solubility [1]	Resistance index [2]	other results
CC[C@@]1(O[PH](=O)[O-])C(=O)OCc2c1cc1n(c2=O)Cc2c-1nc1ccccc1c2/C=N/OC(C)(C)C.[Na+] [WQ1114]	> 10000 µg/mL	19	
CCc1ccc2nc3c(cc2c1)Cn1c-3cc2c(c1=O)COC(=O)[C@@]2(CC)O[PH](=O)[O-].[Na+] [WQ1119]	> 10000 µg/mL		
CCc1c2c(nc3ccc(Cl)cc13)-c1cc3c(c(=O)n1C2)COC(=O)[C@@]3(CC)O[PH](=O)[O-].[Na+] [WQ1109]	> 10000 µg/mL		
CC[C@@]1(O[PH](=O)[O-])C(=O)OCc2c1cc1n(c2=O)Cc2c-1nc1ccccc1c2OC.[Na+] [WQ1122]	> 10000 µg/mL	5	
CC[C@@]1(O[PH](=O)[O-])C(=O)OCc2c1cc1n(c2=O)Cc2cc3cc(C)ccc3nc2-1.[Na+] [WQ1118]	> 10000 µg/mL	67	
CC[C@@]1(O[PH](=O)[O-])C(=O)OCc2c1cc1n(c2=O)Cc2cc3cc4c(cc3nc2-1)OCO4.[Na+] [WQ1104]	> 10000 µg/mL		
CC[C@@]1(O)C(=O)OCc2c1cc1n(c2=O)Cc2cc3c(CN(C)C)c(O)ccc3nc2-1 [Topotecan, reference compound]		210	anti-tumor effect on NCI-H929 xenografts in nude mice (in words) ([3]; 2 mg/kg): no significant anti-tumor effect; IR By RTV % [3, 4]: 37.3%; IR By TW % [3, 4]: 52.0%; RTV (X ± SD) [3, 4]: 25.3 ± 14.8; TW (X ± SD, g) [3, 4]: 0.71 ± 0.44 g; Bw (X ± SD, g) end [3, 5]: 19.2 ± 1.3 g; TV (X ± SD, mm^3) End [3, 5]: 1123.2 ± 608.9 mm^3; Bw (X ± SD, g) initial [3, 6]: 17.2 ± 1.0 g; TV (X ± SD, mm^3) initial [3, 6]: 45.9 ± 6.0 mm^3
CCCc1ccc2nc3c(cc2c1)Cn1c-3cc2c(c1=O)COC(=O)[C@@]2(CC)O[PH](=O)[O-].[Na+] [WQ1120]	> 10000 µg/mL		
CCc1c2c(nc3cc(F)c(C)cc13)-c1cc3c(c(=O)n1C2)COC(=O)[C@@]3(CC)O[PH](=O)[O-].[Na+] [WQ1112]	> 10000 µg/mL		
CCCCc1ccc2nc3c(cc2c1)Cn1c-3cc2c(c1=O)COC(=O)[C@@]2(CC)O[PH](=O)[O-].[Na+] [WQ1121]	> 10000 µg/mL		
CC[C@@]1(O[PH](=O)[O-])C(=O)OCc2c1cc1n(c2=O)Cc2c-1nc1ccccc1c2CC[Si](C)(C)C.[Na+] [WQ1115]	> 10000 µg/mL	25	
CC[C@@]1(O[PH](=O)[O-])C(=O)OCc2c1cc1n(c2=O)Cc2cc3cc4c(cc3nc2-1)OCCO4.[Na+] [WQ1102]	> 10000 µg/mL	15	
CCc1ccc2nc3c(cc2c1OC)Cn1c-3cc2c(c1=O)COC(=O)[C@@]2(CC)O[PH](=O)[O-].[Na+] [WQ1124]	> 10000 µg/mL		
CCCCc1ccc2nc3c(c(OC)c2c1)Cn1c-3cc2c(c1=O)COC(=O)[C@@]2(CC)O[PH](=O)[O-].[Na+] [WQ1126]	> 10000 µg/mL		
CCc1c2c(nc3ccc(C)cc13)-c1cc3c(c(=O)n1C2)COC(=O)[C@@]3(CC)O[PH](=O)[O-].[Na+] [WQ1108]	> 10000 µg/mL	38	
CCc1c2c(nc3cc(Cl)c(Cl)cc13)-c1cc3c(c(=O)n1C2)COC(=O)[C@@]3(CC)O[PH](=O)[O-].[Na+] [WQ1113]	> 10000 µg/mL		
CCc1c2c(nc3cc4c(cc13)OCCO4)-c1cc3c(c(=O)n1C2)COC(=O)[C@@]3(CC)O[PH](=O)[O-].[Na+] [WQ1103]	> 10000 µg/mL		
CCCc1ccc2nc3c(c(OC)c2c1)Cn1c-3cc2c(c1=O)COC(=O)[C@@]2(CC)O[PH](=O)[O-].[Na+] [WQ1125]	> 10000 µg/mL		
CCc1c2c(nc3ccccc13)-c1cc3c(c(=O)n1C2)COC(=O)[C@@]3(CC)O[PH](=O)[O-].[Na+] [WQ1107]	> 10000 µg/mL		
CC[C@@]1(O[PH](=O)[O-])C(=O)OCc2c1cc1n(c2=O)Cc2c-1nc1ccc(C)cc1c2OC.[Na+] [WQ1123]	> 10000 µg/mL		
CCc1c2c(nc3cc(F)c(F)cc13)-c1cc3c(c(=O)n1C2)COC(=O)[C@@]3(CC)O[PH](=O)[O-].[Na+] [WQ1111]	> 10000 µg/mL	7	
CC[C@@]1(O[PH](=O)[O-])C(=O)OCc2c1cc1n(c2=O)Cc2c-1nc1ccccc1c2[Si](C)(C)C(C)(C)C.[Na+] [WQ1116]	> 10000 µg/mL	13	
CCc1c2c(nc3ccc(Br)cc13)-c1cc3c(c(=O)n1C2)COC(=O)[C@@]3(CC)O[PH](=O)[O-].[Na+] [WQ1110]	> 10000 µg/mL		
CC[C@@]1(O[PH](=O)[O-])C(=O)OCc2c1cc1n(c2=O)Cc2cc3cc(Cl)ccc3nc2-1.[Na+] [WQ1117]	> 10000 µg/mL	9	
CCc1c2c(nc3cc4c(cc13)OCO4)-c1cc3c(c(=O)n1C2)COC(=O)[C@@]3(CC)O[PH](=O)[O-].[Na+] [WQ1105]	> 10000 µg/mL	20	
CCc1c2c(nc3ccc(O)cc13)-c1cc3c(c(=O)n1C2)COC(=O)[C@]3(O)CC [SN38, reference compound]		290	
CC[C@@]1(O[PH](=O)[O-])C(=O)OCc2c1cc1n(c2=O)Cc2cc3c(Cl)c4c(cc3nc2-1)OCO4.[Na+] [WQ1106]	> 10000 µg/mL		
